Test results: patent publication US8367721B2, “Methods of treating an overweight or obese subject” (Zafgen, Inc., priority 2008, dated 2013)

What was measured:
[1] = test system: diet-induced obese C57BL/6NTac mice; experiment: 7 day oral weight loss study in diet-induced obese mice (Example 5); format: in vivo; conditions: oral 1.0 mg/kg once a day for 7 days
Protocol: A weight loss study was conducted in obese mice. The mice in this study were not genetically obese, but prior to and during the study, obesity was induced by a high-fat diet. Twelve week-old C57BL/6NTac mice, maintained on a 60% fat diet prior to and during the study, were separated into seven groups, eight animals per group. Average body weight of the mice was approximately 47 g at the start of the study.
Each of six groups was orally administered 1.0 mg/kg of a compound ([…] compounds B. C, D, E, F and G as disclosed herein), in 10% gelucire in deoinised water. Each of these six groups was administered a different compound. One group was orally administered fumagillin at 1.0 mg/kg (group 201) in 10% gelucire in deoinised water, and one group was administered 10% gelucire in deoinised water (vehicle). Mice received administrations once a day for 7 days.
(Data analyzed by ANCOVA with body weight on Day 1 as covariate followed by multiple tests against vehicle group: *p<0.05; **p<0.01, ***p<0.001.)

[2] = test system: Thioredoxin-1 (TXN) in B16F10 cells; experiment: N-terminal chymotryptic fragments of TXN by LC/MS in fumagillin-treated B16F10 cells; format: cell-based
Protocol: B16F10 cells were treated with increasing concentrations of fumagillin. N-terminal chymotryptic fragments of TXN were measured by liquid chromatography/mass spectrometry (LC/MS). […] The EC50 of fumagillin to increase Met-TXN acetylated Met-TXN levels is <10 nM.

[3] = test system: C57BL/6 mice conditioned on a high fat diet; experiment: Diet admixture for 250 days in high fat diet mice; format: in vivo
Protocol: (§1) Oral administration of the MetAP2 inhibitor fumagillin causes an increase in circulating ketone bodies, as measured by concentration of beta hydroxybutyrate, which indicates an increase in the breakdown of stored fat.
In addition to showing an increase in beta hydroxybutyrate concentration, C57BL/6 mice conditioned on a high fat diet and treated with fumagillin (ZGN-201) as a diet admixture (1 mg/kg daily for 250 days) also experienced a reduction in body fat by approximately 40 percent (FIG. 6). Once attaining the maximum weight reduction, mice treated daily with 1 mg/kg fumagillin maintained a weight that was 25% less than that of age-matched mice maintained on normal mouse chow diet (lean mice, FIG. 6) for the duration of the experiment.
Adipose tissue in mice fed a high-fat diet show distinctive crown-like structures not seen in lean mice. These crown-like structures were also absent from the adipose tissue of fumagillin-treated mice.

[4] = test system: C57BL/6 mice conditioned on a high fat diet; experiment: Oral gavage for 10 days in high fat diet mice; format: in vivo; conditions: oral gavage 0.3 or 3 mg/kg daily for 10 days
Text: as §1

[5] = test system: High fat diet-fed C57BL/6 mice; experiment: 14 day body weight and food intake study in high fat diet-fed mice; format: in vivo
Protocol: High fat diet-fed C57BL/6 mice were treated with 1 mg/kg of the MetAP2 inhibitor fumagillin (ZGN-201, squares) or vehicle (diamonds) for 14 days (FIG. 10). Body weights (left panel) were determined daily, while food intake (right panel) was assessed every other day by measuring the food consumed by each cage of three mice over the two day period. Data shown in FIG. 10 are means±SEM, n=9 animals. […] First, during the initial two to three days of treatment, no overt changes in food intake or body weight are observed. During this time period key changes in MetAP2 substrates occur, including glyceraldehyde-3-phosphate dehydrogenase and thioredoxin (data not shown). Second, the animals enter a period of rapid weight loss that proceeds until essentially all excess fat deposits are consumed. During this second period, fat oxidation is enhanced and food intake is inhibited.
Weight loss following treatment with therapeutically relevant doses of MetAP2 inhibitors stops once animals attain a normal body composition. […] This third phase can be maintained indefinitely provided the drug is continued (see FIG. 10), or presumably can be maintained in practice through other complementary pharmacologic, dietary, or lifestyle interventions.

[6] = test system: TXN in Cos-1 and 293T cells; experiment: FLAG-tagged TXN expression (gel) in transfected Cos-1 and 293T cells; format: cell-based
Protocol: EC50 of fumagillin to increase TXN levels is <10 nM.

[7] = test system: C57BL/6 mice conditioned on a high-fat diet; experiment: 28 day oral gavage, fat and lean tissue change in high fat diet mice; format: in vivo; conditions: oral gavage 0.1 or 0.3 mg/kg for 28 days
Protocol: C57BL/6 mice were conditioned on a low-fat diet (LF), a high fat diet (HF), or a high-fat diet and treated with fumagillin (ZGN-201) administered by oral gavage at doses of 0.1 or 0.3 mg/kg for 28 days. […] To determine whether the weight loss resulted from loss of fat or loss of lean tissue, the percentage change in fat tissue and lean tissue was determined for LF mice, HF mice, HF mice treated with 0.1 mg/kg fumagillin, and HF mice treated with 0.3 mg/kg fumagillin.
Upon histological examination, the studies of treated obese mice show no effect on growth of new blood vessels in growing fat depots and no effect on blood vessel size or density when compared to animals in which weight loss has been induced by simple energy (food) restriction.

[8] = diet admixture 1 mg/kg daily for 250 days

CO[C@@H]1[C@H](OC(=O)NCCC2CCCN2C)CC[C@]2(CO2)[C@H]1[C@@]1(C)O[C@@H]1CC=C(C)C (stereo partly drawn) [C]
body weight change over the course of the 8 days [1]: lost weight

CO[C@@H]1[C@H](OC(=O)N[C@@H](C(N)=O)C(C)C)CC[C@]2(CO2)[C@H]1[C@@]1(C)O[C@@H]1CC=C(C)C [B]
body weight change over the course of the 8 days [1]: lost weight

CO[C@@H]1[C@H](OC(=O)/C=C/C=C/C=C/C=C/C(=O)O)CC[C@]2(CO2)[C@H]1[C@@]1(C)O[C@@H]1CC=C(C)C [fumagillin]
accumulation of N-acetyl TXN(1-4) ([2]; LC/MS): significant accumulation
cellular level of TXN containing an intact N-terminal methionine [TXN(1-4)] ([2]; LC/MS): significantly increased
EC50 ([2]; Mus musculus, B16-F10, read-out: EC50 to increase Met-TXN acetylated Met-TXN levels): < 10 nM
maintained weight less than that of age-matched lean mice on normal chow ([3]; 1 mg/kg daily, after maximum weight reduction): 25%
adipocyte size ([3]; 1 mg/kg, 250 days): more similar to that of age-matched lean mice
crown-like structures in adipose tissue ([3]; 1 mg/kg, 250 days): absent
fasted glucose and insulin levels, insulin-glucose product ([3]; 1 mg/kg, 250 days): more similar to that of age-matched lean mice
retroperitoneal fat pad weight ([3]; 1 mg/kg, 250 days): more similar to that of age-matched lean mice
size and appearance of epididymal fat, peri-renal fat and liver ([3]; 1 mg/kg, 250 days): more similar to that of age-matched lean mice
hydroxybutyrate concentration at longer time points [3, 8]: Increased hydroxybutyrate concentration persisted
reduction in body fat [3, 8]: approximately 40%
beta hydroxybutyrate concentrations [4]: increase
free fatty acid concentration [4]: without an increase
food intake during period of rapid weight loss ([5]; 1 mg/kg for 14 days, second phase): inhibited
food intake after weight loss nadir ([5]; 1 mg/kg, third phase): returns to normal levels
expression of TXN ([6]; Cos-1 and 293T cells transfected with FLAG-tagged TXN): significantly increased
EC50 ([6]; gel, FIG. 4, read-out: EC50 to increase TXN levels): < 10 nM
body weight change over the course of the 8 days [1]: lost the most weight
body weight [7]: reduction in body weight down to the level of low fat fed mice
reduction in fat [7]: 40-50%
reduction in lean tissue [7]: 5-10%

CO[C@@H]1[C@H](OC(=O)N[C@@H](C(=O)NCCN2CCCC2)C(C)C)CC[C@]2(CO2)[C@H]1[C@@]1(C)O[C@@H]1CC=C(C)C [E]
body weight change over the course of the 8 days [1]: lost weight
